From the Biogen ADME set (Fang et al. 2023) come the findings set out here.

In brackets after ≈: the same amount, converted by molar mass.

The conditions of the data set: for aqueous solubility: pH 6.8.

In general, aqueous solubility refers to the dissolved amount per volume that the medium holds. Regarding `Cc1ccccc1CSc1ccc(-c2ccccn2)nn1`, the MDR1-MDCK efflux ratio is 0.589; the intrinsic clearance, human liver microsomes is 95.6 mL/min/kg; the intrinsic clearance, rat liver microsomes is 537 mL/min/kg; the aqueous solubility is 1.75 µg/mL (≈ 5.96 µM).
In the case of `O=c1n(CCn2ccnc2)nnn1-c1cccs1`, the MDR1-MDCK efflux ratio was found to be 0.738; the intrinsic clearance, human liver microsomes was not above 4.74 mL/min/kg; the intrinsic clearance, rat liver microsomes was 55.6 mL/min/kg.
Regarding `CC(C)n1cc(-c2ccc3c(c2)N(C)CC3)c2c(NS(=O)(=O)c3ccn(C)n3)ccnc21`, the MDR1-MDCK efflux ratio is 2.48; the intrinsic clearance, human liver microsomes came out at 69.5 mL/min/kg; the intrinsic clearance, rat liver microsomes is 115 mL/min/kg; the aqueous solubility came out at 19.4 µg/mL (≈ 43.1 µM).
`CCOc1cccc(-c2cccc(N)n2)c1`: the MDR1-MDCK efflux ratio is 0.559; the intrinsic clearance, human liver microsomes is 237 mL/min/kg; the intrinsic clearance, rat liver microsomes is 556 mL/min/kg.
Turning to `COC(=O)c1c(C)[nH]c(C(=O)OCC(=O)N(C)Cc2cccs2)c1C`, the MDR1-MDCK efflux ratio came out at 1.47; the intrinsic clearance, human liver microsomes came out at 54.1 mL/min/kg; the intrinsic clearance, rat liver microsomes worked out at 484 mL/min/kg; the aqueous solubility amounted to 40.6 µg/mL (≈ 111 µM).
With `CCc1cccc(C)c1NC(=O)c1ccc(C)o1`, the MDR1-MDCK efflux ratio amounted to 0.661; the intrinsic clearance, human liver microsomes is not above 4.74 mL/min/kg; the intrinsic clearance, rat liver microsomes came to 172 mL/min/kg.
Turning to `Cc1cccc(NC(=O)C(=O)c2c(C)nn(C)c2C)n1`, the intrinsic clearance, human liver microsomes was 19.4 mL/min/kg and the intrinsic clearance, rat liver microsomes worked out at 231 mL/min/kg.
For the compound `CC(C)CN(c1ncnc2c1cnn2C)C1CC1`, the MDR1-MDCK efflux ratio amounted to 0.731; the intrinsic clearance, human liver microsomes came out at 50.5 mL/min/kg; the intrinsic clearance, rat liver microsomes was determined as 345 mL/min/kg; the aqueous solubility worked out at 29.6 µg/mL (≈ 121 µM).
Consider `CCn1c(=O)oc2cc(NC(=O)c3ccc(C(C)(C)C)cc3)ccc21`, for which the MDR1-MDCK efflux ratio was 0.34; the fraction unbound, human plasma was found to be 0.0162; the fraction unbound, rat plasma was 0.0151.
In turn, `CCCCNC(=O)c1ccc2c(c1)nnn2C` displayed an intrinsic clearance, human liver microsomes not above 4.74 mL/min/kg; an intrinsic clearance, rat liver microsomes not above 10.7 mL/min/kg; an aqueous solubility of 26 µg/mL (≈ 112 µM).
For `CCn1ccc2cc(C(=O)N3CCN(c4ccc(C)cc4)C(=O)C3)ccc21`, the MDR1-MDCK efflux ratio came to 2.47; the intrinsic clearance, human liver microsomes turned out to be 12 mL/min/kg; the intrinsic clearance, rat liver microsomes worked out at 260 mL/min/kg; the aqueous solubility was found to be 45.7 µg/mL (≈ 127 µM).
In turn, `Cc1nc(-c2cccc(C(N)=O)c2)sc1-c1ccc(F)cc1` gave an intrinsic clearance, human liver microsomes of 18.1 mL/min/kg and an intrinsic clearance, rat liver microsomes of 394 mL/min/kg.
As for `COc1ccc2nc(C)c(C(=O)Nc3ccccc3N3CCCC3)cc2c1`, the MDR1-MDCK efflux ratio was found to be 0.484; the intrinsic clearance, human liver microsomes was 182 mL/min/kg; the intrinsic clearance, rat liver microsomes came to 985 mL/min/kg; the aqueous solubility amounted to 8.4 µg/mL (≈ 23.2 µM).
On to `Cc1cc(Br)cn(Cc2ccc(C#N)cc2F)c1=O`, for which the MDR1-MDCK efflux ratio came out at 0.644; the intrinsic clearance, human liver microsomes was not above 4.74 mL/min/kg; the intrinsic clearance, rat liver microsomes was 102 mL/min/kg.
Regarding `CC1CC1C(=O)N1CCC(n2c(=O)[nH]c3ccccc32)CC1` (stereo unspecified), the intrinsic clearance, human liver microsomes is not above 4.74 mL/min/kg; the intrinsic clearance, rat liver microsomes was 162 mL/min/kg; the aqueous solubility was 32.2 µg/mL (≈ 108 µM).
On to `O=C(O)c1cccc(N2CCC(Oc3ccc(Cl)cc3)CC2)n1`, for which the MDR1-MDCK efflux ratio worked out at 0.711; the intrinsic clearance, human liver microsomes came out at 4.88 mL/min/kg; the intrinsic clearance, rat liver microsomes was not above 10.7 mL/min/kg; the aqueous solubility stood at 45 µg/mL (≈ 135 µM).
The compound `Cc1c(Nc2ccc3nccnc3n2)cnn1C` returned an aqueous solubility of 31.7 µg/mL (≈ 132 µM).
For `O=C(CN1CCCc2ccc(F)cc21)N1CCNC1=O`, the MDR1-MDCK efflux ratio turned out to be 0.896; the intrinsic clearance, human liver microsomes was not above 4.74 mL/min/kg; the intrinsic clearance, rat liver microsomes was determined as 61.3 mL/min/kg; the aqueous solubility came to 45.1 µg/mL (≈ 163 µM).
As to `CC(=O)Nc1ccc2nc(N3CCOCC3)sc2c1`, the MDR1-MDCK efflux ratio was 0.807; the intrinsic clearance, human liver microsomes is not above 4.74 mL/min/kg; the intrinsic clearance, rat liver microsomes came to 23.1 mL/min/kg; the aqueous solubility stood at 44 µg/mL (≈ 159 µM).
The like results for `COc1cc(CNc2nnn[nH]2)cc(Br)c1OCc1ccc(Cl)cc1` were, in that order, 4.03, 10.5 mL/min/kg, 74.5 mL/min/kg and 1.88 µg/mL (≈ 4.43 µM).
With `Cn1cc(C(=O)O)c(-c2cccnc2)n1`, the aqueous solubility was 40.8 µg/mL (≈ 201 µM).
Consider `NCc1ccc(-n2cnc3ccccc32)cc1Cl`, for which the intrinsic clearance, human liver microsomes stood at 13 mL/min/kg and the intrinsic clearance, rat liver microsomes stood at 36.1 mL/min/kg.
For the compound `O=C1Oc2nc3cc4c(cc3cc2CN1CCN1CCOCC1)OCCO4`, the MDR1-MDCK efflux ratio was 3.87; the intrinsic clearance, human liver microsomes is not above 4.74 mL/min/kg; the intrinsic clearance, rat liver microsomes is not above 10.7 mL/min/kg; the aqueous solubility was determined as 80.5 µg/mL (≈ 217 µM).
For the compound `Oc1cncc(/C=C/c2nc(-c3ccncc3)no2)c1`, the intrinsic clearance, human liver microsomes came out at 31.8 mL/min/kg and the intrinsic clearance, rat liver microsomes was 239 mL/min/kg.
As to `NC(=O)c1csc(CN2CCc3cc(F)ccc3C2)c1`, the MDR1-MDCK efflux ratio worked out at 0.686; the intrinsic clearance, human liver microsomes amounted to 5.46 mL/min/kg; the intrinsic clearance, rat liver microsomes came to 252 mL/min/kg.
Turning to `CC(C)OCCS(=O)(=O)N1CCc2ccccc2CC1`, the MDR1-MDCK efflux ratio is 0.666; the intrinsic clearance, human liver microsomes was determined as 134 mL/min/kg; the intrinsic clearance, rat liver microsomes was found to be 3140 mL/min/kg.
Regarding `CCn1nnc2cc(C(=O)Nc3cccc(C#N)c3)ccc21`, the aqueous solubility was 1 µg/mL (≈ 3.43 µM).
In the case of `Cc1csc(CCNc2ncccc2C#N)n1`, the intrinsic clearance, human liver microsomes stood at 73 mL/min/kg; the intrinsic clearance, rat liver microsomes is 876 mL/min/kg; the aqueous solubility was 32.1 µg/mL (≈ 131 µM).
`CCOC(=O)c1ccc(OCC(=O)c2c[nH]c3ccccc23)cc1`: the MDR1-MDCK efflux ratio was 0.456 and the aqueous solubility is 0.69 µg/mL (≈ 2.13 µM).
Regarding `CNC(=O)Cc1cccc(OCCN2CCCCC2)c1`, the MDR1-MDCK efflux ratio is 11.8; the intrinsic clearance, human liver microsomes is not above 4.74 mL/min/kg; the intrinsic clearance, rat liver microsomes stood at 57.3 mL/min/kg.
The like results for `COCC1(CNS(=O)(=O)c2ccc3[nH]cnc3c2)CCC1` were, in that order, 32.8, 16.2 mL/min/kg and 860 mL/min/kg.
In the case of `CN(CC(=O)Nc1cccc(F)c1)C(=O)c1cccc(C#N)c1`, the MDR1-MDCK efflux ratio came to 6.11; the intrinsic clearance, human liver microsomes was determined as 26.4 mL/min/kg; the intrinsic clearance, rat liver microsomes was determined as 131 mL/min/kg; the aqueous solubility came to 56.2 µg/mL (≈ 181 µM).
Consider `O=C1CCCc2nc(Nc3nc(-c4ccccc4)c4ccccc4n3)ncc21`, for which the aqueous solubility was 0.16 µg/mL (≈ 0.435 µM).
As to `CNC(=O)c1ccc(CN(C)c2c(F)cc(C#N)cc2F)cc1`, the MDR1-MDCK efflux ratio turned out to be 0.595; the intrinsic clearance, human liver microsomes was determined as 11.5 mL/min/kg; the intrinsic clearance, rat liver microsomes came out at 238 mL/min/kg; the aqueous solubility is 15.7 µg/mL (≈ 49.9 µM).
The like results for `Cc1nc2ccccn2c1CC(=O)NCCCSc1ccccc1` were, in that order, 26.2, 77.8 mL/min/kg, 1260 mL/min/kg and 42.3 µg/mL (≈ 125 µM).
On to `Cc1ncc(CN2CC[C@@H](Nc3cncc(Cl)n3)[C@@H](C)C2)s1`, for which the MDR1-MDCK efflux ratio was 0.974; the fraction unbound, human plasma came to 0.16; the fraction unbound, rat plasma was found to be 0.184; the intrinsic clearance, human liver microsomes was determined as 75.6 mL/min/kg. Also, the intrinsic clearance, rat liver microsomes was determined as 637 mL/min/kg and the aqueous solubility turned out to be 52.8 µg/mL (≈ 156 µM).
With `Cc1cc(-n2nc(C)cc2N)nc(C)n1`, the intrinsic clearance, human liver microsomes was 58.9 mL/min/kg and the intrinsic clearance, rat liver microsomes was found to be 125 mL/min/kg.
Compound `COc1ccc2c(c1)CN(c1nc(C)cc(C)n1)CC2` yielded an intrinsic clearance, human liver microsomes of 129 mL/min/kg; an intrinsic clearance, rat liver microsomes of 484 mL/min/kg; an aqueous solubility of 10.1 µg/mL (≈ 37.5 µM).
In turn, `Cc1ccc(-c2nc(-c3ccncc3)n[nH]2)cc1` registered an intrinsic clearance, human liver microsomes of 26.9 mL/min/kg; an intrinsic clearance, rat liver microsomes of 269 mL/min/kg; an aqueous solubility of 20 µg/mL (≈ 84.7 µM).
As to `Cc1nc(NCC(C)(C)c2ccccc2)n(C)n1`, the MDR1-MDCK efflux ratio amounted to 1.07; the intrinsic clearance, human liver microsomes is 10.7 mL/min/kg; the intrinsic clearance, rat liver microsomes came to 235 mL/min/kg; the aqueous solubility worked out at 36.2 µg/mL (≈ 148 µM).
With `Cc1cc(NC(=O)C2CCOCC2)sn1`, the MDR1-MDCK efflux ratio was determined as 0.91; the intrinsic clearance, human liver microsomes is not above 4.74 mL/min/kg; the intrinsic clearance, rat liver microsomes was not above 10.7 mL/min/kg; the aqueous solubility was found to be 56.5 µg/mL (≈ 250 µM).
Turning to `CC1(C)Cc2cc(NC(=O)c3cnn4cccnc34)c(N3CCN(CC(F)F)CC3)nc2O1`, the MDR1-MDCK efflux ratio was 7.71; the intrinsic clearance, human liver microsomes was found to be 18.6 mL/min/kg; the intrinsic clearance, rat liver microsomes was found to be 121 mL/min/kg; the aqueous solubility came to 76.9 µg/mL (≈ 168 µM).
In turn, `Nc1nc(NCCNc2ncc(-c3ncc[nH]3)c(-c3ccc(Cl)cc3Cl)n2)ccc1[N+](=O)[O-]` returned an aqueous solubility of 29.9 µg/mL (≈ 61.6 µM).
Turning to `CN(C)C1=N[C@@H]2[C@@H](O)[C@H](O)[C@@H](CO)O[C@@H]2S1`, the MDR1-MDCK efflux ratio was found to be 0.274; the intrinsic clearance, human liver microsomes was not above 4.74 mL/min/kg; the intrinsic clearance, rat liver microsomes was not above 10.7 mL/min/kg; the aqueous solubility came out at 36.7 µg/mL (≈ 148 µM).
With `O=C(CN1CCCN(c2ccc(C(F)(F)F)cn2)CC1)Nc1ccccc1Cl`, the MDR1-MDCK efflux ratio is 1.03; the intrinsic clearance, human liver microsomes is 229 mL/min/kg; the intrinsic clearance, rat liver microsomes is 1650 mL/min/kg; the aqueous solubility worked out at 11 µg/mL (≈ 26.6 µM).
`CN1CCC(CNc2nccc3cccnc23)CC1`: the MDR1-MDCK efflux ratio was determined as 0.854; the intrinsic clearance, human liver microsomes is not above 4.74 mL/min/kg; the intrinsic clearance, rat liver microsomes amounted to 1520 mL/min/kg.
In the case of `Cc1ncsc1C(=O)N1C[C@@H]2CCCN(C(=O)c3scnc3C)[C@@H]2C1`, the MDR1-MDCK efflux ratio came out at 82; the intrinsic clearance, human liver microsomes is not above 4.74 mL/min/kg; the intrinsic clearance, rat liver microsomes was found to be 11 mL/min/kg; the aqueous solubility was found to be 75.9 µg/mL (≈ 202 µM).
`O=C1CCCN1CCCN1CCC(n2c(=O)[nH]c3ccccc32)CC1` gave an intrinsic clearance, human liver microsomes not above 4.74 mL/min/kg; an intrinsic clearance, rat liver microsomes of 15.7 mL/min/kg; an aqueous solubility of 15.9 µg/mL (≈ 46.4 µM).
